Measured values from DBAASP.
≈ marks a conversion by molar mass, not a printed value.

Key:
Experiment in all cases: ≥ marks a high value that may be exact or a test limit, other limits are often not marked, values filed in µg/mL are converted to µM
[1] = test system: Candida albicans ATCC 10231
[2] = test system: Staphylococcus aureus ATCC 25923
[3] = test system: Pseudomonas aeruginosa ATCC 9027
[4] = test system: Enterococcus faecalis PCM 2673
[5] = test system: Escherichia coli ATCC 25922
[6] = test system: Staphylococcus epidermidis
Proteus mirabilis = test system: Proteus mirabilis
Salmonella typhimurium = test system: Salmonella typhimurium
Pseudomonas aeruginosa = test system: Pseudomonas aeruginosa
Klebsiella pneumoniae = test system: Klebsiella pneumoniae
Shigella dysenteriae = test system: Shigella dysenteriae
Staphylococcus aureus = test system: Staphylococcus aureus
Micrococcus luteus = test system: Micrococcus luteus
Bacillus subtilis = test system: Bacillus subtilis
Escherichia coli = test system: Escherichia coli
Escherichia coli K-12 = test system: Escherichia coli K-12
[7] = test system: Staphylococcus aureus USA 300
[8] = test system: Pseudomonas aeruginosa CMCCB 10104
[9] = test system: Staphylococcus aureus ATCC 2592
Bacillus megaterium = test system: Bacillus megaterium
[10] = test system: Candida albicans ATCC 2002
[11] = test system: Klebsiella pneumoniae ATCC 13883
[12] = test system: Pseudomonas aeruginosa PAO1
[13] = test system: Cronobacter sakazakii DPC 6440
[14] = test system: Listeria monocytogenes LO28
Escherichia coli UB1005 = test system: Escherichia coli UB1005
Candida albicans = test system: Candida albicans
[15] = test system: Salmonella enterica serovar Typhimurium
[16] = test system: Pseudomonas aeruginosa H103
[17] = test system: Enterococcus faecalis ATCC 29212
[18] = test system: Staphylococcus aureus RN4220
Escherichia coli ML-35p = test system: Escherichia coli ML-35p

SMILES: CC[C@H](C)[C@H](NC(=O)[C@H](CCCCN)NC(=O)[C@H](CCCCN)NC(=O)[C@@H](NC(=O)[C@@H](NC(=O)[C@H](CC(=O)O)NC(=O)[C@H](Cc1ccccc1)NC(=O)[C@H](CC(C)C)NC(=O)[C@H](C)N)[C@@H](C)CC)[C@@H](C)CC)C(=O)N[C@@H](C)C(=O)N[C@@H](CCC(=O)O)C(=O)N[C@@H](CO)C(=O)N[C@@H](Cc1ccccc1)C(N)=O [ALFDIIKKIAESF]
- MIC [1]: 85.6 µM (≈ 128 µg/mL)
- MIC [2]: 343 µM (≈ 512 µg/mL)
- MIC [3]: 343 µM (≈ 512 µg/mL)
- MIC [4]: ≥ 85.6 µM
- MIC [5]: 85.6 µM (≈ 128 µg/mL)

SMILES: CC(C)C[C@H](NC(=O)[C@H](C)NC(=O)CNC(=O)[C@H](CC(C)C)NC(=O)[C@@H](N)Cc1ccccc1)C(=O)N[C@@H](Cc1ccccc1)C(=O)N[C@@H](CCCCN)C(=O)N[C@@H](Cc1ccccc1)C(=O)N[C@@H](C)C(=O)N[C@@H](CO)C(=O)N[C@@H](CCCCN)C(=O)O [FLGALFKFASK]
- MIC [6]: ≥ 81.4 µM
- MIC (Proteus mirabilis): ≥ 163 µM
- MIC (Salmonella typhimurium): ≥ 163 µM
- MIC (Pseudomonas aeruginosa): > 163 µM
- MIC (Klebsiella pneumoniae): 81.4 µM (≈ 100 µg/mL)
- MIC (Shigella dysenteriae): ≥ 81.4 µM
- MIC (Staphylococcus aureus): 40.7 µM (≈ 50 µg/mL)
- MIC (Micrococcus luteus): 20.4 µM (≈ 25 µg/mL)
- MIC (Bacillus subtilis): 20.4 µM (≈ 25 µg/mL)
- MIC (Escherichia coli): 81.4 µM (≈ 100 µg/mL)

SMILES: CC(C)[C@H](NC(=O)[C@H](CO)NC(=O)[C@H](Cc1cnc[nH]1)NC(=O)[C@H](Cc1ccccc1)NC(=O)[C@H](C)NC(=O)[C@H](CCCCN)NC(=O)CNC(=O)[C@H](Cc1ccccc1)NC(=O)CN)C(=O)N[C@@H](CO)C(=O)N[C@@H](CC(N)=O)C(=O)N[C@@H](Cc1ccccc1)C(=O)N[C@@H](C)C(=O)N[C@@H](CCCCN)C(=O)N[C@@H](CCCCN)C(=O)N[C@@H](Cc1cnc[nH]1)C(=O)N[C@@H](CCCCN)C(=O)N[C@H](C(=O)N[C@@H](C)C(N)=O)[C@@H](C)O [GFGKAFHSVSNFAKKHKTA]
- MIC (Escherichia coli K-12): ≥ 100 µM
- MIC [7]: ≥ 100 µM

SMILES: CC[C@H](C)[C@H](N=C(O)CN)C(O)=NCC(O)=N[C@H](C(O)=N[C@@H](CCCCN)C(O)=N[C@H](C(O)=N[C@@H](CC(C)C)C(O)=NCC(O)=NCC(O)=N[C@H](C(O)=N[C@@H](CCCCN)C(O)=N[C@H](C(O)=N[C@@H](C)C(O)=N[C@@H](CC(C)C)C(O)=N[C@@H](CCCCN)C(O)=NCC(O)=N[C@@H](C)C(O)=N[C@@H](CC(C)C)C(O)=N[C@@H](CCCCN)C(O)=N[C@@H](CCC(=O)O)C(O)=N[C@@H](CC(C)C)C(O)=N[C@@H](C)C(O)=N[C@@H](CO)C(O)=N[C@H](C(O)=N[C@@H](Cc1ccc(O)cc1)C(O)=N[C@@H](C)C(O)=N[C@@H](CC(=N)O)C(=N)O)[C@@H](C)O)[C@@H](C)O)C(C)C)[C@@H](C)CC)[C@@H](C)O [GIGTKILGGVKTALKGALKELASTYAN]
- MIC [8]: 7.29 µM (≈ 19.5 µg/mL)
- MIC [9]: 7.29 µM (≈ 19.5 µg/mL)
- MIC (Klebsiella pneumoniae): 3.36 µM (≈ 9 µg/mL)
- MIC (Shigella dysenteriae): 1.01 µM (≈ 2.7 µg/mL)
- MIC [5]: 7.29 µM (≈ 19.5 µg/mL)
- MIC (Bacillus megaterium): 7.29 µM (≈ 19.5 µg/mL)
- MIC [10]: 1.12 µM (≈ 3 µg/mL)

SMILES: CC[C@H](C)[C@H](NC(=O)[C@H](C)NC(=O)[C@H](CCCCN)NC(=O)[C@@H](NC(=O)[C@@H](NC(=O)[C@H](CC(=O)O)NC(=O)[C@H](Cc1ccccc1)NC(=O)[C@H](CC(C)C)NC(=O)CN)[C@@H](C)CC)[C@@H](C)CC)C(=O)N[C@@H](C)C(=O)N[C@@H](CCC(=O)O)C(=O)N[C@@H](CO)C(=O)N[C@@H](Cc1ccccc1)C(N)=O [GLFDIIKAIAESF]
- MIC [1]: 45 µM (≈ 64 µg/mL)
- MIC [2]: > 360 µM
- MIC [3]: > 360 µM
- MIC [4]: ≥ 45 µM
- MIC [5]: 89.9 µM (≈ 128 µg/mL)

SMILES: CC(C)C[C@H](NC(=O)[C@H](CC(C)C)NC(=O)[C@H](CCCCN)NC(=O)[C@H](CC(C)C)NC(=O)CNC(=O)[C@H](CC(C)C)NC(=O)[C@H](CCCCN)NC(=O)[C@H](CC(C)C)NC(=O)[C@H](CC(C)C)NC(=O)[C@H](CC(C)C)NC(=O)[C@H](CO)NC(=O)[C@H](CC(C)C)NC(=O)CN)C(N)=O [GLSLLLKLGLKLL]
- MIC [11]: 25 µM (≈ 34.5 µg/mL)
- MIC [5]: > 25 µM
- MIC [7]: 1.13 µM (≈ 1.56 µg/mL)
- MIC [12]: > 25 µM

SMILES: CC[C@H](C)[C@H](NC(=O)[C@H](Cc1c[nH]c2ccccc12)NC(=O)[C@@H]1CCCN1C(=O)[C@H](CCCCN)NC(=O)[C@H](CCSC)NC(=O)[C@H](C)NC(=O)[C@@H](N)CCCCN)C(=O)N[C@@H](CCC(N)=O)C(=O)N1CCC[C@H]1C(=O)N[C@@H](CCCCN)C(=O)N[C@H](C(=O)N[C@@H](CCCCN)C(=O)N[C@H](C(=O)N[C@H](C(=O)N1CCC[C@H]1C(=O)O)[C@@H](C)CC)C(C)C)[C@@H](C)O [KAMKPWIQPKTKVIP]
- MIC [13]: ≥ 1250 µM
- MIC [14]: ≥ 156 µM

SMILES: CC[C@H](C)[C@H](NC(=O)[C@H](CCCN=C(N)N)NC(=O)[C@H](C)NC(=O)[C@H](CC(C)C)NC(=O)[C@@H](N)CCCN=C(N)N)C(=O)N[C@H](C(=O)N1CCC[C@H]1C(=O)N[C@H](C(=O)N[C@@H](CCCN=C(N)N)C(=O)N[C@H](C(=O)N[C@@H](C)C(=O)N[C@@H](CCCN=C(N)N)C(=O)O)C(C)C)[C@@H](C)CC)C(C)C [RLARIVPIRVAR]
- MIC (Escherichia coli UB1005): ≥ 176 µM
- MIC [6]: ≥ 176 µM
- MIC (Candida albicans): > 176 µM
- MIC [2]: > 176 µM
- MIC [15]: ≥ 176 µM
- MIC [16]: ≥ 176 µM
- MIC [17]: > 176 µM

SMILES: NC(=O)[C@H](CCCN=C(N)N)NC(=O)[C@H](CCCN=C(N)N)NC(=O)[C@H](Cc1c[nH]c2ccccc12)NC(=O)[C@H](CCCN=C(N)N)NC(=O)[C@H](CCCN=C(N)N)NC(=O)[C@H](Cc1c[nH]c2ccccc12)NC(=O)[C@H](Cc1c[nH]c2ccccc12)NC(=O)[C@H](CCCN=C(N)N)NC(=O)[C@@H](N)CCCN=C(N)N [RRWWRRWRR]
- MIC [18]: ≥ 100 µM
- MIC (Escherichia coli ML-35p): 25 µM (≈ 37.8 µg/mL)

SMILES: NCCCC[C@H](NC(=O)[C@H](CCCN=C(N)N)NC(=O)[C@H](CCCN=C(N)N)NC(=O)[C@H](Cc1c[nH]c2ccccc12)NC(=O)[C@@H](N)CCCN=C(N)N)C(=O)N[C@@H](Cc1c[nH]c2ccccc12)C(=O)N[C@@H](Cc1c[nH]c2ccccc12)C(=O)N[C@@H](Cc1c[nH]c2ccccc12)C(=O)N[C@@H](Cc1c[nH]c2ccccc12)C(=O)O [RWRRKWWWW]
- MIC (Escherichia coli UB1005): 1.4 µM (≈ 2.16 µg/mL)
- MIC [6]: 0.7 µM (≈ 1.08 µg/mL)
- MIC (Candida albicans): 5.6 µM (≈ 8.66 µg/mL)
- MIC [2]: 0.7 µM (≈ 1.08 µg/mL)
- MIC [15]: 2.8 µM (≈ 4.33 µg/mL)
- MIC [16]: 11.2 µM (≈ 17.3 µg/mL)
- MIC [17]: 2.8 µM (≈ 4.33 µg/mL)

SMILES: CC[C@H](C)[C@H](NC(=O)[C@@H](N)Cc1c[nH]c2ccccc12)C(=O)N[C@@H](C)C(=O)N1CCC[C@H]1C(=O)N[C@@H](CCCCN)C(=O)N[C@H](C(=O)N[C@@H](CCCCN)C(=O)N[C@H](C(=O)N[C@H](C(=O)N1CCC[C@H]1C(=O)N[C@@H](Cc1ccc(O)cc1)C(=O)N[C@H](C(=O)N[C@@H](CCCN=C(N)N)C(=O)N[C@@H](Cc1ccc(O)cc1)C(=O)N[C@@H](CC(C)C)C(=O)O)C(C)C)[C@@H](C)CC)C(C)C)[C@@H](C)O [WIAPKTKVIPYVRYL]
- MIC [13]: ≥ 78.1 µM
- MIC [14]: 19.5 µM (≈ 36.1 µg/mL)

SMILES: CC[C@H](C)[C@H](NC(=O)[C@@H](N)Cc1c[nH]c2ccccc12)C(=O)N[C@@H](CCC(N)=O)C(=O)N1CCC[C@H]1C(=O)N[C@@H](CCCCN)C(=O)N[C@H](C(=O)N[C@@H](CCCCN)C(=O)N[C@H](C(=O)N[C@H](C(=O)N1CCC[C@H]1C(=O)N[C@@H](Cc1ccc(O)cc1)C(=O)N[C@H](C(=O)N[C@@H](CCCN=C(N)N)C(=O)N[C@@H](Cc1ccc(O)cc1)C(=O)N[C@@H](C)C(=O)O)C(C)C)[C@@H](C)CC)C(C)C)[C@@H](C)O [WIQPKTKVIPYVRYA]
- MIC [13]: ≥ 78.1 µM
- MIC [14]: ≥ 39.1 µM
